From patent US20240197766A1, “TREATMENT OF RNA VIRUS INFECTION WITH A CYTIDINE” (The Cleveland Clinic Foundation, priority 2021, published 2024)
Values joined by “and” are separate entries in the source; they are usually repeats but may differ in a detail not shown here. Identical values can stand only once. “Also recorded” adds a separate entry of the source. Like-named read-outs stand apart in the source and are kept apart here.

Key:
[1] = THU clinical pharmacokinetics, oral 750 mg in healthy volunteers; details: male, human, in vivo
serum uridine levels = assay: THU clinical pharmacodynamics: serum uridine and cytidine levels
Method: Volunteers (3 males; 3 females) received a single THU dose of 750 mg 7 days apart, the 1st dose in a fasted state and the 2nd after a standard FDA meal.

[2] = test system: cytidine analog deamination; assay: THU clinical pharmacodynamics: deamination of co-administered cytidine analogs
[3] = cited from earlier work
coronavirus = assay type: cell-based; details: THU 24 hours at clinically relevant concentrations, human lung epithelial cells, plaque assay and QRT-PCR
[4] = read-out: routine Cmax; clinical; cited from earlier work
host cell = details: clinically relevant concentrations, data from Xiong et al.; cited from earlier work
CMV = details: case series of renal transplantation patients; cited from earlier work

## O=C1NC(O)CCN1[C@@H]1O[C@H](CO)[C@@H](O)[C@H]1O (stereo partly shown) [THU, tetrahydrouridine]
[1]
  Cmax: 2 µM to 8 µM and 500 ng/mL to 2000 ng/mL
  Tmax: ~3 h
Serum uridine levels; inhibition of 2 CDA-mediated uridine supply routes
  decrease of uridine availability to non-dividing cells: ≤ 90%
Serum uridine levels; single THU dose of 750 mg
  serum cytidine levels: increasing
Serum uridine levels; single THU dose of 750 mg, fasted and fed states, males and females
  decrease in serum uridine levels: 50-80% and 50-90%
Serum uridine levels; standard, non-toxic doses
  reduction of uridine available for systemic salvage: up to 90%
[2]
  reduction in cytidine analog deamination: ~90%
[3]; renal excretion, within 24 h
  administered drug excreted through the kidneys within 24 h: approximately 50%
[3]; within 48 hours
  elimination within 48 hours: 100%
coronavirus
  coronavirus (VSV) replication: inhibited coronavirus replication; also recorded: significantly inhibited

## C/C(O)=C(\C#N)C(=O)Nc1ccc(C(F)(F)F)cc1 [Teriflunomide, teriflunomide]
[4]
  Cmax: 10 to 100 µM
Host cell
  host cell cytotoxicity: minimal

## Cc1oncc1C(=O)Nc1ccc(C(F)(F)F)cc1 [leflunomide]
CMV
  clinical outcome of CMV infection: cleared virus and/or produced clinical improvement
